From PMC7076710, “Synthesis, Identification, and Structure–Activity Relationship Analysis of GATA4 and NKX2-5 Protein–Protein Interaction Modulators” (Journal of Medicinal Chemistry, 2019) come the findings set out here.

In this assay the target is T1, GATA4–NKX2-5 transcriptional synergy (Mus musculus, UniProt P42582+Q08369).
T1 construct: expressed in transfected cells; host or cells: COS-1
In words: GATA4–NKX2-5 transcriptional synergy luciferase reporter assay (3xNKE reporter, COS-1 cells). In kind it is cell-based. The method, then: To screen compounds for the GATA4–NKX2-5 interaction, we have developed a luciferase reporter assay based on their property to activate gene transcription synergistically through the NKX2-5 binding site on DNA.[28] In this assay, we transfected mammalian COS-1 cells with protein expression vectors for GATA4 and NKX2-5 proteins together with artificial luciferase reporter vector containing three high affinity binding sites for NKX2-5 (NKE). […] All 257 compounds were tested in two concentrations, 3 and 10 μM. Compounds either inhibited, enhanced, or had no effect on the GATA4–NKX2-5 transcriptional synergy. To investigate the selectivity of the active compounds, we tested their effects on NKX2-5 transcriptional activity by using the same luciferase reporter vector as in transcriptional synergy assay with three NKE sites (Figure 3B). Furthermore, we used GATA luciferase reporter assay to examine if compounds have an effect on GATA4 transcriptional activity. In this assay, we cotransfected the cells with a GATA4 protein expression vector and a reporter vector with tandem GATA4 binding sites (Figure 3C). Previously we have reported that compound 1 inhibited the GATA4–NKX2-5 transcriptional synergy at micromolar concentrations (IC50 = 3 μM).[29]
The plasmids expressing mouse GATA4 protein, pMT2-GATA4, and empty pMT2 were gifts from D. B. Wilson (Department of Pediatrics, St. Louis Children’s Hospital, St. Louis, MO).[44] The plasmids expressing mouse NKX2-5 protein, pMT2-NKX2-5, have been described earlier.[28] The luciferase reporter plasmid used in GATA4–NKX2-5 transcriptional synergy assay and NKX transcriptional assay, pGL3-3xHA, contains three high affinity binding sites for NKX2-5.[28] The luciferase reporter plasmid used in GATA transcriptional assay, NP-112, contains tandem GATA-sites and minimal promoter of rat brain natriuretic peptide (BNP) gene.[45] The pGL3-BNP luciferase reporter containing −534/+4 bp rat BNP proximal promoter described previously was used in hypertrophy assay.[46]
The primary screening assay of compounds’ effect on GATA4–NKX2-5 transcriptional synergy and COS-1 cell culturing has been described earlier.[33] […] (Kinnunen et al., unpublished observation). Briefly, COS-1 cells were seeded at 14 000 cells/well in Isoplate-96 microplates (PerkinElmer, Turku, Finland) and grown overnight. The cells were transfected with the luciferase reporter plasmid pGL3-3xHA 100 ng/well and equal amounts of expression plasmids pMT2-GATA4 and pMT2-NKX2-5 total 50 ng/well. To verify the synergistic effect, the cells were transfected with pMT2-GATA4 or pMT2-NKX2-5 25 ng/well, and the total DNA concentration was adjusted to 50 ng/well with empty pMT2 plasmid. In NKX2-5 and GATA4 luciferase reporter assays, the cells were transfected with reporter plasmid pGL3-3xHA or NP-112 (100 ng/well) and expression plasmid pMT2-NKX2-5 or pMT2-GATA4 (25 ng/well). The ratio of DNA/transfection reagent (Fugene 6, Promega) was 1:3 in all assays. The transfections were performed in serum and antibiotics free media for 6 h. The cells were treated with compounds or vehicle (0.1% DMSO) for 24 h, and the luminescence was measured using neolite Reporter Gene Assay System (PerkinElmer, Turku, Finland) and Victor2 plate reader (PerkinElmer, Turku, Finland).
Raw luciferase data were analyzed in Excel, and clear outliers were removed from triplicates by using the Grubb’s test. Data analysis was performed using R.[49] The luciferase data were first normalized on the basis of the combined mean value of controls. For data visualization and creation of figures, the following R packages were used: ggplot2, cowplot, RColorBrewer, and pheatmap. The heatmaps of the toxicity data were produced with GraphPad Prism 7.00 (GraphPad Software, La Jolla, CA). Statistical significance of luciferase reporter assay data was evaluated by randomized block analysis of variance followed by Dunnett’s post hoc test. […]

The mark [1] stands for this setting: COS-1, compound at 3 µM, luciferase reporter activity, % of control.
Setting [2] is: 3 µM compound, GATA4–NKX2-5 transcriptional synergy reporter, COS-1 cells.
Setting [3] is: 10 µM compound, GATA4–NKX2-5 transcriptional synergy reporter, COS-1 cells.
Where [4] appears, read: COS-1, compound 3 µM, luciferase reporter activity, spread in separate STDEV column.
Setting [5] is: COS-1, compound at 10 µM, luciferase reporter activity, % of control.
[6] abbreviates: COS-1, 3 µM, luciferase reporter activity, % of control.
Where [7] appears, read: COS-1, 10 µM, luciferase reporter activity, % of control.
[8] abbreviates: COS-1, compound 3 µM, luciferase reporter activity relative to control.
Setting [9] is: COS-1, compound 10 µM, luciferase reporter activity, spread in separate STDEV column.

T1 sequence (Q08369 whole entry): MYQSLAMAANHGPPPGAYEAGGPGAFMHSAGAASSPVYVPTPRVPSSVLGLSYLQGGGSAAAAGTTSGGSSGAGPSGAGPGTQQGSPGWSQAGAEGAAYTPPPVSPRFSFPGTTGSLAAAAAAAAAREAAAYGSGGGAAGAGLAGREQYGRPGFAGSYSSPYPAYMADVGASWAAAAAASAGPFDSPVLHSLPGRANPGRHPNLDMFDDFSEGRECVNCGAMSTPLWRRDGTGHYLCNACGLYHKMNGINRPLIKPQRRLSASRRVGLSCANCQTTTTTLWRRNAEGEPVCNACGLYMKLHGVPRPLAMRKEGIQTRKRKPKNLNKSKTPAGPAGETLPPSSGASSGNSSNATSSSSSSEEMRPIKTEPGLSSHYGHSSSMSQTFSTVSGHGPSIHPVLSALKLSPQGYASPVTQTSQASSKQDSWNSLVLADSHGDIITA
T1 sequence (P42582 whole entry): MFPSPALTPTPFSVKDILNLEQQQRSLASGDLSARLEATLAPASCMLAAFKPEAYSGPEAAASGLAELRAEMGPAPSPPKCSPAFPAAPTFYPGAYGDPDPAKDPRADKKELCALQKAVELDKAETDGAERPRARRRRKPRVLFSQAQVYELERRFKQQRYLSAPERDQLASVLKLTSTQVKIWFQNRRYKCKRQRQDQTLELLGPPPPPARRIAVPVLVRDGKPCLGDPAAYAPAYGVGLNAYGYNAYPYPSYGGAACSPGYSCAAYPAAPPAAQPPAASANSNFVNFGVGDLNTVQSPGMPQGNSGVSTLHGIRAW

For the compound `CCN(CC)c1ccc(NC(=O)c2c(-c3c(Cl)ccc([N+](=O)[O-])c3Cl)noc2C)cc1` [Compound 39f, 3-(2,6-Dichloro-3-nitrophenyl)-N-[4-(diethylamino)phenyl]-5-methylisoxazole-4-carboxamide], under setting [1], the activity at 3 µM was 76.3%.
On the same count and under the same terms, then `CCN(CC)c1ccc(NC(=O)c2c(-c3ccccc3[N+](=O)[O-])noc2C)cc1` [Compound 39h], with 89.5%.
As for `CCN(CC)c1ccc(NC(=O)c2c(-c3ccc(Br)cc3)noc2C)cc1` [Compound 39i], the activity at 3 µM under setting [2] stood at 95.1%.
For `CCN(CC)c1ccc(NC(=O)c2c(-c3ccc(-c4ccc(F)cc4)cc3)noc2C)cc1` [Compound 39j], the activity at 3 µM under setting [2] came out at 115%. Further, the activity at 10 µM under setting [3] turned out to be 114%.
On to `CCN(CC)c1ccc(NC(=O)c2c(-c3cc(Br)cs3)noc2C)cc1` [Compound 39l], for which, under setting [4], the activity at 3 µM turned out to be 91%.
In the case of `Cc1onc(-c2cccc([N+](=O)[O-])c2)c1C(=O)Nc1ccc(N(C)C)cc1` [Compound 40], under setting [1], the activity at 3 µM was determined as 95%. In addition, the activity at 10 µM under setting [5] was determined as 101%.
For the compound `CCN(CC)c1ccc(NC(=O)c2ncoc2-c2ccccc2)cc1` [Compound 47a], the activity at 3 µM under setting [6] amounted to 90.7%. Further, the activity at 10 µM under setting [7] stood at 112%.
Turning to `CCN(CC)c1ccc(NC(=O)c2ccnc(C(F)(F)F)c2)cc1` [Compound 47ac], the activity at 3 µM under setting [2] amounted to 88.3%.
Regarding `CCN(CC)c1ccc(NC(=O)c2nn(-c3ccccc3)nc2C)cc1` [Compound 47b], the activity at 3 µM under setting [6] turned out to be 97.7%. In addition, the activity at 10 µM under setting [7] is 101%.
For the compound `CCN(CC)c1ccc(NC(=O)c2cnn(C)c2-c2ccccc2)cc1` [Compound 47e], the activity at 3 µM under setting [8] worked out at 81.1%.
As to `CCN(CC)c1ccc(NC(=O)c2c[nH]nc2-n2cnnn2)cc1` [Compound 47g, N-[4-(Diethylamino)phenyl]-3-(1H-tetrazol-1-yl)-1H-pyrazole-4-carboxamide], the activity at 3 µM under setting [2] came out at 102%.
Turning to `CCN(CC)c1ccc(NC(=O)c2ccoc2CCc2cccs2)cc1` [Compound 47i], under setting [2], the activity at 3 µM amounted to 89%. Moreover, the activity at 10 µM under setting [3] amounted to 103%.
With `CCN(CC)c1ccc(NC(=O)c2c(-c3ccccc3)nnc3ccccc23)cc1` [Compound 47j], the activity at 3 µM under setting [8] was 113%.
Turning to `CCN(CC)c1ccc(NC(=O)c2c(-c3ccccc3)nnn2CCOC)cc1` [Compound 47k], the activity at 3 µM under setting [8] was found to be 73.2%.
On the same count and under the same terms, in the case of `CCN(CC)c1ccc(NC(=O)c2c(-c3ccccc3)nnn2C)cc1` [Compound 47o] it was 113%; in that of `CCN(CC)c1ccc(NC(=O)c2nnn(C)c2-c2ccccc2)cc1` [Compound 47p], 86.8%.
Regarding `CCN(CC)c1ccc(NC(=O)c2c(C(F)(F)F)nn(C)c2Oc2ccccc2)cc1` [Compound 47q], under setting [2], the activity at 3 µM was 94.5%.
Turning to `CCN(CC)c1ccc(NC(=O)c2cnoc2C2CC2)cc1` [Compound 47r], the activity at 3 µM under setting [6] turned out to be 114%. For the same compound, the activity at 10 µM under setting [7] came to 145%.
For `CCN(CC)c1ccc(NC(=O)c2csc3nnsc23)cc1` [Compound 47v], the activity at 3 µM under setting [2] was 95.9%. Also, under setting [3], the activity at 10 µM was 132%.
Regarding `CCN(CC)c1ccc(NC(=O)c2c(SC)nsc2SC)cc1` [Compound 47w], the activity at 3 µM under setting [2] was 115%. In addition, under setting [3], the activity at 10 µM was determined as 112%.
With `CCN(CC)c1ccc(NC(=O)c2ncoc2-c2ccco2)cc1` [Compound 47x], the activity at 3 µM under setting [4] turned out to be 116%. The activity at 10 µM under setting [9] was determined as 116%.
On to `CCN(CC)c1ccc(/N=C/c2onc(-c3ccccc3)c2C(=O)Nc2ccc(N(CC)CC)cc2)cc1` [Compound 48], for which the activity at 3 µM under setting [6] turned out to be 74.9%. The activity at 10 µM under setting [7] was found to be 54.1%.
`CCN(CC)c1ccc(/N=C/c2onc(-c3ccccc3)c2C(=O)OC)cc1` [Compound 51]: the activity at 3 µM under setting [1] was 81.3%. For the same compound, the activity at 10 µM under setting [5] worked out at 93.5%.
As for `CCN(CC)c1ccc(NC(=O)c2ccsc2)cc1` [Compound 55], under setting [7], the activity at 10 µM is 108%.
As to `CCN(CC)c1ccc(NC(=O)C2CCCC2)cc1` [Compound 57], the activity at 3 µM under setting [4] was 112%. Also, under setting [9], the activity at 10 µM was determined as 115%.
Take `CCN(CC)c1ccc(NC(=O)c2c(-c3ccccn3)noc2C)cc1` [Compound 59]: the activity at 3 µM (COS-1, GATA4-NKX2-5 transcriptional synergy luciferase reporter assay, compound at 3 µM) came to 90.9%. Further, the activity at 10 µM (COS-1, GATA4-NKX2-5 transcriptional synergy luciferase reporter assay, compound at 10 µM) turned out to be 104%.
`CCN(c1ccc(NC(=O)c2c(C)noc2-c2snnc2C)cc1)C(C)C` [Compound 62]: the activity at 3 µM under setting [2] was found to be 31%.
With `Cc1onc(-c2ccccc2)c1NC(=O)c1ccc(N2CCN(C)CC2)cc1` [Compound 67], the activity at 3 µM under setting [1] is 90.6%. Further, under setting [5], the activity at 10 µM came out at 124%.
As to `Cc1onc(-c2ccccc2)c1C(=O)N(C)c1ccc(C(=O)O)cc1` [Compound 68], the activity at 3 µM under setting [4] was found to be 117%. In addition, under setting [9], the activity at 10 µM came out at 127%.
As for `CCC(C)NC(=O)c1cc(-c2ccco2)on1` (centres unmarked) [Compound 69], the activity at 3 µM under setting [4] was 127%. Further, under setting [9], the activity at 10 µM turned out to be 138%.
Take `CC(=O)c1ccc(NC(=O)c2cc(-c3ccco3)on2)cc1` [Compound 70]: the activity at 3 µM under setting [4] was 115%.
Consider `CCSCCOC(=O)c1ccc(NC(=O)c2c(-c3ccccc3)noc2C)cc1` [SI1], for which, under setting [4], the activity at 3 µM turned out to be 115%. Further, the activity at 10 µM under setting [9] was determined as 104%.
In the same order, the values of `Cc1onc(-c2ccccc2)c1C(=O)Nc1ccc(C(=O)OCc2ccco2)cc1` [SI2] are 99.4% and 82.7%.
In the same order, the values of `CC(=O)COC(=O)c1ccc(NC(=O)c2c(-c3ccccc3)noc2C)cc1` [SI3] are 85.8% and 98.5%.
Turning to `Cc1onc(-c2ccccc2)c1C(=O)Nc1ccc(Nc2ccccc2)cc1` [SI5], the activity at 3 µM under setting [6] turned out to be 105%. Further, under setting [7], the activity at 10 µM was determined as 89.1%.
As to `CCN(C(=O)c1c(-c2ccccc2)noc1C)c1ccc(Nc2ccccc2)cc1` [SI6], the activity at 3 µM under setting [6] was found to be 114%. For the same compound, under setting [7], the activity at 10 µM turned out to be 87.2%.
For the compound `CCCCOc1ccc(NC(=O)c2c(-c3ccccc3)noc2C)cn1` [SI7], under setting [6], the activity at 3 µM turned out to be 97.9%. For the same compound, under setting [7], the activity at 10 µM is 79%.
Consider `Cc1onc(-c2ccccc2)c1C(=O)Nc1nc2ccccc2n1C` [SI9], for which, under setting [1], the activity at 3 µM was 83.5%. Also, the activity at 10 µM under setting [5] is 78%.
In the same order, the values of `Cc1cc(NC(=O)c2c(-c3ccccc3)noc2C)ncc1[N+](=O)[O-]` [SI10] are 116% and 78.3%.
In the same order, the values of `Cc1onc(-c2ccccc2)c1C(=O)Nc1ccc(C(=O)Nc2ccccc2)cc1` [SI11] are 80.1% and 98.5%.
In the same order, the values of `Cc1onc(-c2ccccc2)c1C(=O)Nc1cnc2ccccc2c1` [SI12] are 108% and 99.5%.
`Cc1onc(-c2ccccc2)c1C(=O)Nc1ccc(OCC(F)(F)F)c(Cl)c1` [SI13]: the activity at 3 µM under setting [4] is 89.2%. The activity at 10 µM under setting [9] stood at 71.6%.
On to `Cc1onc(-c2ccccc2)c1C(=O)Nc1ccc2c(c1)C(=O)CCC2` [SI14], for which, under setting [4], the activity at 3 µM was determined as 107%. Moreover, the activity at 10 µM under setting [9] turned out to be 98.2%.
